Reference: PMC8582472, “Investigation of Novel Small Molecular TRPM4 Inhibitors in Colorectal Cancer Cells” (Cancers, 2021)

Target: TRPM4 (Homo sapiens, UniProt Q8TD43)
Experiment: whole-cell patch clamp of endogenous TRPM4 currents in HCT116 cells
Assay type: cell-based

TRPM4, sequence (Q8TD43 whole entry): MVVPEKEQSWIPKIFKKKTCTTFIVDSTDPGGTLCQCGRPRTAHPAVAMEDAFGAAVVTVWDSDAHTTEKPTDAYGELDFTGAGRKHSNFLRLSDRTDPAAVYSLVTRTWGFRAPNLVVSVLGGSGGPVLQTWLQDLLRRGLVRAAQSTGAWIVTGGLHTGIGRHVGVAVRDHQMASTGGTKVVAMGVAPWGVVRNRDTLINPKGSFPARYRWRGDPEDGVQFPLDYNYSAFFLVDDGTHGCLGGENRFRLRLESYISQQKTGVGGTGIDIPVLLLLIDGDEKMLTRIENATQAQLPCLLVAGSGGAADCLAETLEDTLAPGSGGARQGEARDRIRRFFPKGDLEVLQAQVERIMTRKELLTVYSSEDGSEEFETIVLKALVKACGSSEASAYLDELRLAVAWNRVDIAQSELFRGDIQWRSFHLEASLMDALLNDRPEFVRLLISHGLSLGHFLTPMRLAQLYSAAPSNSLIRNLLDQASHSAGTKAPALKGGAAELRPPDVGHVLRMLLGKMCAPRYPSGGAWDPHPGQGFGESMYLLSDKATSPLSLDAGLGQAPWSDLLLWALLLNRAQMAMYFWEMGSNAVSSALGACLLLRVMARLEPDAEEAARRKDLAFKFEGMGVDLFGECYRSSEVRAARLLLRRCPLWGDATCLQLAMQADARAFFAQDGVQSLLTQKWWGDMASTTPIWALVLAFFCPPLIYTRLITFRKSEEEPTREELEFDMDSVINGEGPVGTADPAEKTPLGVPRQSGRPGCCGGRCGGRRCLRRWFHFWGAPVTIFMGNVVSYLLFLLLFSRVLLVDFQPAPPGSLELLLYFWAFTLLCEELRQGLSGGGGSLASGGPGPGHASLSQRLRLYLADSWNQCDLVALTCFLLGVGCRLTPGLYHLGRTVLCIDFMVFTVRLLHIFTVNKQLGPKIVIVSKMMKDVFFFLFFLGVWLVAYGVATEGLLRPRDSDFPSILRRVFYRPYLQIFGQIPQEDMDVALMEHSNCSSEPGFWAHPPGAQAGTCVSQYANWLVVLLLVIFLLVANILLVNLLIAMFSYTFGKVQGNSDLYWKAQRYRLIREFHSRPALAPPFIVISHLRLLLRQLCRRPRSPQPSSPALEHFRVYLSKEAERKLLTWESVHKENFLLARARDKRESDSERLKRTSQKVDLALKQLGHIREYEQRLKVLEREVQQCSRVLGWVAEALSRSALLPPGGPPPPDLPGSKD

Compound Cc1cc(Cl)ccc1OC(C)C(=O)Nc1cc(Cl)ccc1C(=O)O (stereo not shown) [LBA, 4-chloro-2-(2-(4-chloro-2-methylphenoxy)propanamido) benzoic acid] has an IC50 of 1840 nM.
